The values that follow come from patent US7834148B2, “Protein phosphorylation imaging systems, methods of making phosphorylation imaging systems, and methods of use thereof” (Stanford University, priority 2006, dated 2010).

The subject of this assay is Akt kinase activity. In words: Bioluminescence imaging of nude mice bearing 293T/AS1T and 293T/AS1A xenografts. Format: in vivo. Conditions: 30 mg/kg. As for the experimental part: FIGS. 10a-10b illustrate the inhibition of Akt kinase activity by perifosine in living mice. FIG. 10a illustrates the efficacy of perifosine in inhibition of Akt kinase activity in living subjects was determined by bioluminescence imaging of nude mice bearing 293T/AS1A and 293T/AS1T xenografts. Mice were treated with 30 mg/kg of perifosine or carrier control at time 0 hour and re-imaged at 6, 15, 27 and 39 hours upon i.p. injection of D-Luciferin. FIG. 10b illustrate the max photons at each time point was normalized to that of carrier control treated mice and expressed as average normalized max photons+/−S.E.M. for each xenograft. It should be noted that p<0.05 relative to AS1A xenografts.
To determine if sufficient sensitivity for indirect imaging of Akt kinase activity has been achieved in living subjects, 293T/AS1T and 293T/AS1A cells were implanted at the lower left and right of nude mice for xenograft establishment. Since the bioluminescence signal from untreated 293T/AS1A cells was about 10-fold higher than that of 293T/AS1T cells in cell culture studies, 10% 293T/AS1A cells were mixed with 90% untransfected 293T cells (no FL activity) prior to implantation to normalize the signals to that of 293T/AS1T cells. Complemented FL activity in living mice was determined by bioluminescence imaging using a cooled coupled charged device (CCD) camera upon i.p. injection of D-luciferin. […] Perifosine was chosen over LY for these animal experiments since perifosine is water soluble and currently being evaluated in clinical trials. […] 6 hours of perifosine treatment led of a 20% decrease in complemented FL activity in 293T/AS1A but a 60% increase in complemented FL activity in 293T/AS1T relative to carrier control treated mice (p<0.05), corresponding to the 2-fold difference between AS1T and AS1A (FIG. 10b).
All of the animal handling was performed in accordance with Stanford University Animal Research Committee guidelines, Mice were gas anesthetized using isofluorane (2% isofluorane in 100% oxygen) during all injection and imaging procedures. Mice were imaged using a cooled CCD camera (Xenogen IVIS29; Xenogen Corp., Alameda, Calif.). […] To quantify the measured light, regions of interest were drawn over the area of the implanted cells, and the maximum photons/s/cm^2/steradian (sr) were obtained as validated previously. […] Max photons at time 6, 12 and 24 hours were normalized to that of time 0 hr for each individual mouse, and expressed as normalized average max photons±S.E.M.

Each structure is given as a SMILES string.

In the case of `CCCCCCCCCCCCCCCCCCOP(=O)([O-])OC1CC[N+](C)(C)CC1` [perifosine], the “decrease in complemented FL activity” value (293T/AS1A xenografts, 6 hours, relative to carrier control treated mice) turned out to be 20%. Also, the “complemented FL activity at later time points” value (293T/AS1T and 293T/AS1A xenografts, later than 6 hours, relative to carrier control, p>0.05) was “no significant difference”. Further, where the note is “293T/AS1T xenografts, 6 hours, relative to carrier control treated mice, p<0.05”, the “increase in complemented FL activity” value worked out at 60%. Further, under “xenografts, 6 hours”, the “difference between AS1T and AS1A” value was found to be 2 fold.
